Experimental data as given in ChEMBL document CHEMBL4428037 (J Med Chem, 2016).
Active and inactive are the calls of the source. No cut-off for these calls is given here.

Assays:
HeLa = test: Growth inhibition of human HeLa cells incubated for 72 hrs by MTT assay; type: functional, cell-based
PC-3 = test: Growth inhibition of human PC3 cells incubated for 72 hrs by MTT assay; type: functional, cell-based; conditions: PC-3, 72 h
HepG2 = test: Growth inhibition of human HepG2 cells incubated for 72 hrs by MTT assay; type: functional, cell-based; conditions: HepG2, 72 h
MCF7 = test: cells; conditions: Homo sapiens, MCF7, 72 h
Tubulin (Sus scrofa) [1] = target: T1, Tubulin (Sus scrofa) (UniProt P02554+P02550); test: Displacement of [3H]colchicine from biotinylated porcine tubulin at 1 uM incubated for 2 hrs by competition scintillation proximity; type: protein assay
Tubulin (Sus scrofa) [2] = target: T1, Tubulin (Sus scrofa); test: Displacement of [3H]colchicine from biotinylated porcine tubulin at 5 uM incubated for 2 hrs by competition scintillation proximity; type: protein assay
Tubulin = Tubulin (Sus scrofa, UniProt P02554+P02550); test: (§1) Inhibition of porcine brain tubulin polymerization incubated for 60 mins by fluorescence-based assay
Tubulin (Sus scrofa) [3] = target: T1, Tubulin (Sus scrofa); test: as §1
NCI-H460 = test: Growth inhibition of human NCI-H460 cells incubated for 48 hrs by MTT assay; type: functional, cell-based; conditions: NCI-H460, 48 h
A549 [4] = test: Growth inhibition of human A549 cells incubated for 48 hrs by MTT assay; type: functional, cell-based; conditions: A549, 48 h
A549 [5] = test: Induction of apoptosis in human A549 cells assessed as early apoptotic cells level at 40 nM incubated for 24 hrs by Annexin V-FITC/PI staining based FACS flow cytometry (reference value: 0.65%); type: functional
A549 [6] = test: Induction of apoptosis in human A549 cells assessed as induction of cell shrinkage at 40 nM incubated for 24 hrs microscopy; type: functional, cell-based
A549 [7] = test: Induction of apoptosis in human A549 cells assessed as induction of cytoplasmic membrane blebbing at 40 nM incubated for 24 hrs microscopy; type: functional, cell-based
[8] = target: T2, Tubulin alpha (Homo sapiens) (UniProt P0DPH7+P68366+Q71U36+P68363+Q9BQE3+Q6PEY2+A6NHL2+Q9NY65); test: Inhibition of alpha tubulin polymerization in human A549 cells assessed as induction of microtubule network dis-organization at 40 nM by Immunofluorescent staining based fluorescence microscopy; type: cell-based
[9] = target: T2, Tubulin alpha (Homo sapiens); test: Inhibition of alpha tubulin polymerization in human A549 cells assessed as induction of cell border shrinkage of microtubules at 40 nM by Immunofluorescent staining based fluorescence microscopy
A549 [10] = test: Induction of apoptosis in human A549 cells assessed as live cells level at 40 nM incubated for 24 hrs by Annexin V-FITC/PI staining based FACS flow cytometry (reference value: 96.83%); type: functional
A549 [11] = test: Induction of cell cycle arrest in human A549 cells assessed as accumulation at G2/M phase at 40 nM incubated for 24 hrs by propidium iodide staining based FACS flow cytometry; type: functional
A549 [12] = test: Induction of apoptosis in human A549 cells assessed as induction of chromatin condensation at 40 nM incubated for 24 hrs microscopy; type: functional, cell-based
A549 [13] = test: Induction of apoptosis in human A549 cells assessed as necrotic cells level at 40 nM incubated for 24 hrs by Annexin V-FITC/PI staining based FACS flow cytometry (reference value: 0.37%); type: functional
A549 [14] = test: Induction of apoptosis in human A549 cells assessed as late apoptotic cells level at 40 nM incubated for 24 hrs by Annexin V-FITC/PI staining based FACS flow cytometry (reference value: 2.15%); type: functional
A549 [15] = test: Induction of apoptosis in human A549 cells assessed as induction of nucleus fragmentation at 40 nM incubated for 24 hrs microscopy; type: functional, cell-based

## CCOc1cccc(Nc2nn(C)c3c2Cc2cc(OCC)c(OCC(=O)N(C)C)cc2-3)c1
HeLa
  IC50: 720 nM
PC-3
  IC50: 1780 nM
HepG2
  IC50: 920 nM
MCF7
  IC50: 6160 nM

## COc1ccc(S(=O)(=O)Nc2cccnc2Nc2ccc(O)cc2)cc1 [ABT-751]
HeLa
  IC50: 355 nM
Tubulin (Sus scrofa) [1]
  inhibition: 39%
PC-3
  IC50: 460 nM
Tubulin (Sus scrofa) [2]
  inhibition: 68%
HepG2
  IC50: 447 nM
MCF7
  IC50: 3790 nM
Tubulin
  IC50: 2790 nM

## CCOc1cccc(Nc2nn(C)c3c2Cc2cc(OCC)c(OCC(=O)NN)cc2-3)c1
HeLa
  IC50: 350 nM
PC-3
  IC50: 760 nM
HepG2
  IC50: 400 nM
MCF7
  IC50: 579 nM

## CCOc1cccc(Nc2nn(C)c3c2Cc2cc(OCC)c(OCC(=O)NCCC#N)cc2-3)c1
HeLa
  IC50: 1450 nM
PC-3
  IC50: 8600 nM
HepG2
  IC50: 2420 nM
MCF7
  IC50: 4610 nM

## CCOc1cccc(Nc2nn(C)c3c2Cc2cc(OCC)c(OCC(=O)NCCO)cc2-3)c1
HeLa
  IC50: 415 nM
PC-3
  IC50: 3680 nM
HepG2
  IC50: 1800 nM
MCF7
  IC50: 662 nM

## CCOc1cccc(Nc2nn(C)c3c2Cc2cc(OCC)c(OCC(=O)NCCN(C)C)cc2-3)c1
HeLa
  IC50: 375 nM
PC-3
  IC50: 460 nM
HepG2
  IC50: 340 nM
MCF7
  IC50: 2990 nM

## C=CCNC(=O)COc1cc2c(cc1OCC)Cc1c(Nc3cccc(OCC)c3)nn(C)c1-2
HeLa
  IC50: 690 nM
PC-3
  IC50: 1940 nM
HepG2
  IC50: 853 nM
MCF7
  IC50: 765 nM

## CCOc1cccc(Nc2nn(C)c3c2Cc2cc(OCC)c(OCC(=O)NCCOC)cc2-3)c1
HeLa
  IC50: 490 nM
PC-3
  IC50: 800 nM
HepG2
  IC50: 447 nM
MCF7
  IC50: 1530 nM

## CCOc1cccc(Nc2nn(C)c3c2Cc2cc(OCC)c(OCC(=O)NCC4CC4)cc2-3)c1
HeLa
  IC50: 3200 nM
PC-3
  IC50: 4600 nM
HepG2
  IC50: 1700 nM
MCF7
  IC50: > 50000 nM

## CCOc1cccc(Nc2nn(C)c3c2Cc2cc(OCC)c(OCC(=O)NC)cc2-3)c1
HeLa
  IC50: 90 nM
PC-3
  IC50: 640 nM
HepG2
  IC50: 142 nM
MCF7
  IC50: 892 nM

## CCOc1cccc(Nc2nn(C)c3c2Cc2cc(OCC)c(OCC(=O)NCCN)cc2-3)c1
HeLa
  IC50: 865 nM
PC-3
  IC50: 1520 nM
HepG2
  IC50: 1400 nM
MCF7
  IC50: 1850 nM

## CCOc1cccc(Nc2nn(C)c3c2Cc2cc(OCC)c(OCC(=O)NO)cc2-3)c1
HeLa
  IC50: 13.2 nM
Tubulin (Sus scrofa) [1]
  inhibition: 31%
PC-3
  IC50: 23.5 nM
Tubulin (Sus scrofa) [2]
  inhibition: 63%
HepG2
  IC50: 16.4 nM
MCF7
  IC50: 33.5 nM
Tubulin (Sus scrofa) [3]
  inhibition: Dose-dependent effect
Tubulin
  IC50: 5330 nM

## CCOc1cccc(Nc2nn(C)c3c2Cc2cc(OCC)c(OCC(=O)NC4CC4)cc2-3)c1
HeLa
  IC50: 720 nM
PC-3
  IC50: 1400 nM
HepG2
  IC50: 653 nM
MCF7
  IC50: 3070 nM

## CC(=O)O[C@H]1C(=O)[C@@]2(C)[C@H]([C@H](OC(=O)c3ccccc3)[C@]3(O)C[C@H](OC(=O)[C@H](O)[C@@H](NC(=O)c4ccccc4)c4ccccc4)C(C)=C1C3(C)C)[C@]1(OC(C)=O)CO[C@@H]1C[C@@H]2O [PACLITAXEL]
HeLa
  IC50: 18 nM
PC-3
  IC50: 21 nM

## CCNC(=O)COc1cc2c(cc1OCC)Cc1c(Nc3cccc(OCC)c3)nn(C)c1-2
HeLa
  IC50: 623 nM
PC-3
  IC50: 3740 nM
HepG2
  IC50: 1310 nM
MCF7
  IC50: 1470 nM

## C#CCNC(=O)COc1cc2c(cc1OCC)Cc1c(Nc3cccc(OCC)c3)nn(C)c1-2
HeLa
  IC50: 505 nM
PC-3
  IC50: 1780 nM
HepG2
  IC50: 587 nM
MCF7
  IC50: 2110 nM

## COc1ccc(/C=C\c2cc(OC)c(OC)c(OC)c2)cc1O [COMBRETASTATIN A4]
PC-3
  IC50: 3.4 nM
Tubulin (Sus scrofa) [2]
  inhibition: 92%
NCI-H460
  IC50: 35.8 nM
HepG2
  IC50: 2.1 nM
MCF7
  IC50: 12.5 nM
A549 [4]
  IC50: 49 nM

## CCOc1cccc(Nc2nn(C)c3c2Cc2cc(OCC)c(OCC(=O)NOC)cc2-3)c1
HeLa
  IC50: 470 nM
PC-3
  IC50: 2900 nM
HepG2
  IC50: 853 nM
MCF7
  IC50: 1670 nM

## COc1cc2c(c(OC)c1OC)-c1ccc(OC)c(=O)cc1[C@@H](NC(C)=O)CC2 [COLCHICINE]
HeLa
  IC50: 7.6 nM
A549 [5]
  Activity: 8.38%
A549 [6]
  Activity: Active
A549 [7]
  Activity: Active
[8]
  inhibition: Active
NCI-H460
  IC50: 49.3 nM
[9]
  inhibition: Active
A549 [10]
  Activity: 84.59%
HepG2
  IC50: 19 nM
A549 [11]
  Activity: 37%
MCF7
  IC50: 47 nM
A549 [12]
  Activity: Active
A549 [13]
  Activity: 1.14%
A549 [14]
  Activity: 5.89%
A549 [4]
  IC50: 59.1 nM
A549 [15]
  Activity: Active
